Measured values from ChEMBL document CHEMBL1201862, “PubChem BioAssay data set” (2004).
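Step 1: Grow cells in 96-well plates. Step 2: Expose to compound for 48 hours at 5 concentrations. Step 3: Interpolate endpoints linearly; if unreached, use highest concentration. GI50 = concentration required for 50% inhibition of growth.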 Calls of active or inactive are those of the source. No stated cut-off is given here; in the data, active = GI50 up to about 1.1 µM and inactive = higher.

Assays:
Experiment in all cases: DTP human tumour cell line panel, 48 h
[1] = system: A498
[2] = system: A549
[3] = system: ACHN
[4] = system: CAKI-1
[5] = system: DMS-114
[6] = system: HCT-116
[7] = system: HCT-15
[8] = system: HOP-62
[9] = system: HOP-92
[10] = system: HT-29
[11] = system: IGROV-1
[12] = system: KM-20L2
[13] = system: KM12
[14] = system: LOX IMVI
[15] = system: LXFL 529
[16] = system: M14
[17] = system: M19-MEL
[18] = system: Malme-3M
[19] = system: NCI-H460
[20] = system: NCI-H522
[21] = system: OVCAR-3
[22] = system: OVCAR-5
[23] = system: SF-268
[24] = system: SF-539
[25] = system: SK-MEL-28
[26] = system: SK-MEL-2
[27] = system: SK-MEL-5
[28] = system: SK-OV-3
[29] = system: SN12C
[30] = system: SNB-75
[31] = system: SNB-78
[32] = system: SR
[33] = system: SW-620
[34] = system: TK-10
[35] = system: U-251
[36] = system: UACC-62
[37] = system: UO-31
[38] = system: CCRF-CEM
[39] = system: COLO 205
[40] = system: HL-60
[41] = system: K562
[42] = system: MOLT-4
[43] = system: NCI-H23
[44] = system: OVCAR-4
[45] = system: RPMI-8226
[46] = system: RXF 393
[47] = system: SF-295
[48] = system: SNB-19
[49] = system: UACC-257

## COc1cc2c(cc1OC)C1C(=O)c3c(O)cc4c(c3OC1CO2)C=CC(C)(C)O4 (stereo not drawn)
[1]
  GI50: 21.6 µM (inactive)
[2]
  GI50: 2.25 µM (inactive)
[3]
  GI50: 0.748 µM (active)
[4]
  GI50: 21.7 µM (inactive)
[5]
  GI50: 0.366 µM (active)
[6]
  GI50: 10.9 µM (inactive)
[7]
  GI50: 19.1 µM
[8]
  GI50: 14.8 µM (inactive)
[9]
  GI50: 18.2 µM (inactive)
[10]
  GI50: 27.8 µM (inactive)
[11]
  GI50: 19 µM (inactive)
[12]
  GI50: 29.5 µM (inactive)
[13]
  GI50: 9.44 µM (inactive)
[14]
  GI50: 5.89 µM (inactive)
[15]
  GI50: 7.03 µM (inactive)
[16]
  GI50: 23.5 µM (inactive)
[17]
  GI50: 13.8 µM (inactive)
[18]
  GI50: 20.6 µM (inactive)
[19]
  GI50: 20.8 µM (inactive)
[20]
  GI50: 1.28 µM (inactive)
[21]
  GI50: 13.5 µM (inactive)
[22]
  GI50: 84.1 µM (inactive)
[23]
  GI50: 27.6 µM (inactive)
[24]
  GI50: 18.2 µM (inactive)
[25]
  GI50: 35.6 µM (inactive)
[26]
  GI50: 18.8 µM (inactive)
[27]
  GI50: 1.17 µM (inactive)
[28]
  GI50: 22.3 µM (inactive)
[29]
  GI50: 27.2 µM (inactive)
[30]
  GI50: 26.7 µM (inactive)
[31]
  GI50: 31.9 µM (inactive)
[32]
  GI50: > 100 µM (inactive)
[33]
  GI50: 23.5 µM (inactive)
[34]
  GI50: 32.8 µM (inactive)
[35]
  GI50: 12.3 µM (inactive)
[36]
  GI50: 12.9 µM (inactive)
[37]
  GI50: 3.01 µM (inactive)

## COC1CCC(CO)OO1 (stereo not drawn)
[1]
  GI50: 13.1 µM (inactive)
[3]
  GI50: 38.2 µM (inactive)
[38]
  GI50: 13.9 µM (inactive)
[39]
  GI50: 53.6 µM (inactive)
[5]
  GI50: 15.3 µM (inactive)
[6]
  GI50: 30.3 µM (inactive)
[40]
  GI50: 18.4 µM (inactive)
[8]
  GI50: 9.64 µM (inactive)
[9]
  GI50: 28.6 µM (inactive)
[10]
  GI50: 28.9 µM (inactive)
[11]
  GI50: 26.4 µM (inactive)
[41]
  GI50: 4.73 µM (inactive)
[12]
  GI50: 23.9 µM (inactive)
[13]
  GI50: 30.9 µM (inactive)
[15]
  GI50: 8.71 µM (inactive)
[16]
  GI50: 47.9 µM (inactive)
[17]
  GI50: 60.4 µM (inactive)
[42]
  GI50: 33.9 µM (inactive)
[18]
  GI50: 59.7 µM (inactive)
[43]
  GI50: 18.8 µM (inactive)
[19]
  GI50: 24.7 µM (inactive)
[20]
  GI50: 12.9 µM (inactive)
[21]
  GI50: 18 µM (inactive)
[44]
  GI50: 45.9 µM (inactive)
[22]
  GI50: 25.9 µM (inactive)
[45]
  GI50: 19.1 µM (inactive)
[46]
  GI50: 33.7 µM (inactive)
[23]
  GI50: 35.8 µM (inactive)
[47]
  GI50: 14.1 µM (inactive)
[24]
  GI50: 27.7 µM (inactive)
[25]
  GI50: 52 µM (inactive)
[26]
  GI50: 47.9 µM (inactive)
[28]
  GI50: > 100 µM (inactive)
[48]
  GI50: 41.4 µM (inactive)
[30]
  GI50: 43.9 µM (inactive)
[31]
  GI50: 15.9 µM (inactive)
[32]
  GI50: 24.3 µM (inactive)
[35]
  GI50: 4.57 µM (inactive)
[49]
  GI50: 45.2 µM (inactive)
[36]
  GI50: 70.3 µM (inactive)
[37]
  GI50: 35.1 µM (inactive)
